Key:
VEGFR2 = VEGFR2 (Homo sapiens, UniProt P35968); assay: pull-down binding assay with endogenous VEGFR2 from HUVEC lysates; parameters: endogenous in cells; host or cells: HUVEC; conditions: HUVEC lysate, anti-VEGFR2 western blot
From the text: Truncated mutants of KIF13B were expressed in BL21 (DE3) or Rosetta-gami and purified as previously described (Yamada, et al. (2014) J. Cell Sci. 127:4518-30; Yamada, et al. (2007) Biochemistry 46:10039-45).
Using recombinant proteins, the binding sites on KIF13B mediating the interaction with VEGFR2 were identified. KIF13B has a motor, forkhead-associated, membrane-associated guanylate kinase-binding stalk, 2 domains of unknown function (DUFs) (DUF3694), and a proline-rich and cytoskeleton-associated protein glycine-rich domain. The DUFs were identified from amino acid sequence similarity on the Pfam database. It has been previously shown that both domains of DUF3694 directly bind recombinant VEGFR2 in vitro (Yamada, et al. (2007) Biochemistry 46:10039-45). To define the specific peptide sequence inhibiting VEGFR2 trafficking, further analysis of the second DUF3694 domain (DUF2, residues 1112-1281 of KIF13B) was carried out. This was based on stability of this domain and a sequence distinct from binding sites for other cargoes of KIF13B (Horiguchi, et al. (2006) J. Cell Biol. 174:425-436; Hanada, et al. (2000) J. Biol. Chem. 275:28774-2878). DUF2 was divided into 3 parts, DUF2A (residues […]), DUF2B (residues 1168-1216), and DUF2C (residues 1217-1281) and each part was expressed as a recombinant protein in bacteria. VEGFR2 was abundantly expressed in HUVECs; thus, cell lysate from HUVECs was incubated with these recombinant proteins on beads, and VEGFR2 binding was determined using the anti-VEGFR2 antibody.
To identify the minimum binding site on VEGFR2, DUF2C was further truncated (DUF2C1-9) (FIG. 1). […] Stability of the C5 peptide was attributed to the 4-6 C-terminal residues. Accordingly, replacing these C-terminal residues with another a peptide, one or more post-translational modifications, one or more non-natural amino acid residues, a macromolecule such as PEG, or a combination thereof, is expected to stabilize the KAI peptide.
Initially, peptide interaction with VEGFR2 was confirmed using the pull-down assay.
To further define the KIF13B residues involved in binding to VEGFR2, truncations of the DUF2C5 peptide were tested for binding to VEGFR2 (Table 3) and compared to binding of DUF2C5 and peptides flanking this region (FIG. 1).

HUVECs [1] = assay: […] migration assay; format: cell-based, human; conditions: TRANSWELL
Method: Specificity of the inhibitory effect of DUF2C5 was determined by EC migration induced by different stimuli in a […] migration assay. HUVECs migrated toward 2.2 nmol/L VEGF, 50 ng/mL basic fibroblast growth factor (bFGF), or 1 μmol/L sphingosine-1-phosphate (S1P) were visualized by hematoxylin staining, and number of migrated cells were counted. Data are expressed as means±SEM. N=3. *P<0.05 (one-way analysis of variance and Bonferroni multiple comparisons test).
(§1) Collagen invasion assay was performed as previously described (Kang, et al. (2011) J. Biol. Chem. 286:42017-26). In vitro capillary network formation on […] (BD Biosciences, San Jose, Calif.) and scratch wound healing assay were performed as previously described (Humtsoe, et al. (2010) Mol. Cell Biol. 30:1593-1606). Fibrin gel sprouting assay was performed as described by Nakatsu & Hughes ((2008) Methods Enzymol. 443:65-82). VEGF (2.2 nmol/L) stimulation was used for all in vitro angiogenesis assays. Transwell migration assay was performed as described by Kaplan, et al. ((2011) Free Radical Res. 45:1124-35) using VEGF (4.4 nmol/L), sphingosine-1-phosphate (S1P) (1 μmol/L), or basic fibroblast growth factor (bFGF) (50 ng/mL) in the presence or absence of kinesin-derived angiogenesis inhibitor (DUF2C5; residues 1238-1260 of KIF13B) at varying concentrations.
(§2) EC migration in response to DUF2C5 was determined using the scratch wound healing assay. […] The […] migration assay was also employed to determine whether the inhibitory effect of DUF2C5 on EC migration was specific to VEGF. HUVECs were placed in the […] chamber with or without DUF2C5 or CT23. […] PBS and CT23 had no effect on EC migration induced by all stimuli.

HUVECs [2] = assay: scratch wound healing assay; format: cell-based, human
Method: as §1, §2

HUVECs [3] = assay: uptake of biotin-tagged peptides by HUVECs, flow cytometry; format: cell-based, human; conditions: biotin-tagged peptide, 2 hours incubation
Method: Next, EC uptake of the peptides by HUVECs was determined. Both DUF2C5 and CT23 were designed to have high pI (pH at which the molecules carry no net charge), pI 12.1 and 10.4, respectively; thus, in neutral pH, both peptides have a positive charge important for cellular uptake (Jones, et al. (2005) Br. J. Pharmacol. 145:1093-1102). DUF2C5 and CT23 were synthesized with a biotin-tag and visualized using streptavidin-[…].

EGFR = target: T1, EGFR (Homo sapiens, UniProt P00533); assay: pull-down on streptavidin beads followed by mass spec analysis; format: binding; conditions: peptide immobilized on streptavidin beads
T1 construct: endogenous in cells
Method: (§3) Additionally, the sequence of DUF2C5 is highly conserved in mammalian KIF13B. […] To further test the specificity of DUF2C5, pull-down of proteins was conducted using DUF2C5 or control peptide (CT23) immobilized on streptavidin beads followed by mass spec analysis of the binding proteins. This analysis detected the presence of KIF13B, VEGFR2, and co-receptor NRP1 (number of hits were 28, 11, and 5, respectively). Tie2, Par1, S1PR1, and FGFR were not found. Other cargo for KIF13B (e.g., CentA, hDlg) were also not found. […] The affinity of each receptor tyrosine kinase was subsequently tested via surface plasmon resonance (SPR) with BIACORE (UIC, RRC), using DUF2C5 and CT23 on an avidin-coated chip, and recombinant cytosolic domain of kinases (Fisher Scientific).

PDGFRα = target: T2, PDGFRα (Homo sapiens, UniProt P16234); assay: as above; format: binding; conditions: peptide immobilized on streptavidin beads
T2 construct: endogenous in cells
T2 sequence (P16234 24-1089): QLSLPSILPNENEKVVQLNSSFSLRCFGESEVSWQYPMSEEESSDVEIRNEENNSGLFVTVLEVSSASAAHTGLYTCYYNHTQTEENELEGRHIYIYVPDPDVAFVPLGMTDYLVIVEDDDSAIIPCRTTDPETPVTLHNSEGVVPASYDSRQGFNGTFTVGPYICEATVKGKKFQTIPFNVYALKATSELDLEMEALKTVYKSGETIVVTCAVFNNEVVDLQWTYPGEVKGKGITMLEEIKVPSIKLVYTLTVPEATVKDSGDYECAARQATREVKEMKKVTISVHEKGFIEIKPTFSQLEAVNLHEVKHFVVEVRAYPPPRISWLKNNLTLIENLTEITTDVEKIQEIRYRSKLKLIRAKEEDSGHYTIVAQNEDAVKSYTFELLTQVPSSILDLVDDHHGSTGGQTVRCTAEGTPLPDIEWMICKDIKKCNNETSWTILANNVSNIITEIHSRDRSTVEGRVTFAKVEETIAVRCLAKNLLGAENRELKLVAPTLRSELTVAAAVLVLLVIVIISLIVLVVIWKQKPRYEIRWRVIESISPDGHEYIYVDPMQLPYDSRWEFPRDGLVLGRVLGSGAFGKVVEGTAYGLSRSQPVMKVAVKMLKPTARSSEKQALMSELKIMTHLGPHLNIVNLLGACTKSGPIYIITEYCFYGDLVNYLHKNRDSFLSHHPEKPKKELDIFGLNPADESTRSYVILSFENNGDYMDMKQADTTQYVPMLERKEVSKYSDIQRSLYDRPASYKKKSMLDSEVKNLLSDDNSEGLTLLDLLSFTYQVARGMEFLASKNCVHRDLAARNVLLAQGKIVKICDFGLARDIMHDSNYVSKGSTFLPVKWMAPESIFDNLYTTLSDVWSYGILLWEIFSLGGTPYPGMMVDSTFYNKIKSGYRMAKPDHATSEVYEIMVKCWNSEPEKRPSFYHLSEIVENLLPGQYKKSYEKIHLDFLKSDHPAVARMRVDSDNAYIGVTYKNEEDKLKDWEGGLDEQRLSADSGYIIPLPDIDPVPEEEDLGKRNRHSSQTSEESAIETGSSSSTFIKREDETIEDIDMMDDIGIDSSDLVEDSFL
Method: as §3

PDGFRβ = target: T3, PDGFRβ (Homo sapiens, UniProt P09619); assay: as above; format: binding; conditions: peptide immobilized on streptavidin beads
T3 construct: endogenous in cells
T3 sequence (P09619 33-1106): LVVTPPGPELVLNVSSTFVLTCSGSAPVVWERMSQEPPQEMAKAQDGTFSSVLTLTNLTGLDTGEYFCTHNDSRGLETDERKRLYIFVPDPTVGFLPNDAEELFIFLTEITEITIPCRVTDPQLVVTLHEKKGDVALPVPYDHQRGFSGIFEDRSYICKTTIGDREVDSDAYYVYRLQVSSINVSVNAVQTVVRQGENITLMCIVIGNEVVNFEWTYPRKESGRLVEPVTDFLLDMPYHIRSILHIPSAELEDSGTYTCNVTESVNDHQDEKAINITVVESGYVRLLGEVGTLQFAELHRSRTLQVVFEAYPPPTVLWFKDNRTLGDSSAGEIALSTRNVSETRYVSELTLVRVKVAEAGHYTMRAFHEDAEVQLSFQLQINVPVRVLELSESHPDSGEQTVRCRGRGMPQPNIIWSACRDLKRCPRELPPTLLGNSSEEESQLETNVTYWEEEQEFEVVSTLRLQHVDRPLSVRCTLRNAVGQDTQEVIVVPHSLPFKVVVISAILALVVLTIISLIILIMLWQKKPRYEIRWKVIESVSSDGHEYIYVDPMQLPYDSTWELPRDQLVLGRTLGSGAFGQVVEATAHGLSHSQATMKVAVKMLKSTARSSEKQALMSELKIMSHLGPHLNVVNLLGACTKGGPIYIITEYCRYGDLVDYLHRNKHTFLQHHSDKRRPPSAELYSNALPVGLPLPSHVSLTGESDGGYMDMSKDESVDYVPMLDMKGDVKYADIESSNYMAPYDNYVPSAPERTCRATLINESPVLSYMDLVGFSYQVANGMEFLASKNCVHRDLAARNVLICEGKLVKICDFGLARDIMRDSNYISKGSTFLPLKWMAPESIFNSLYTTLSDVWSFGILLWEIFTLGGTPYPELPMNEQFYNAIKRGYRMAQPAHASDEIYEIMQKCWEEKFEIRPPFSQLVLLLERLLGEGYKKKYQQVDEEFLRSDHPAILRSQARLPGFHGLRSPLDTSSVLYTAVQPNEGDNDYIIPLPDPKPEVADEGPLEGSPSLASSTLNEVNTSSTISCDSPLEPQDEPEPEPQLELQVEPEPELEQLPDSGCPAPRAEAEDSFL
Method: as §3

HUVECs [4] = assay: VEGF-induced proliferation, WST-1 assay; format: cell-based, human; conditions: 3 μmol/L
Method: VEGF-induced proliferation and viability of HUVECs were assessed by the WST-1 assay (Roche) as previously described (Cai, et al. (2006) Microvasc. Res. 71:20-31; Jones, eta 1. (2005) Br. J. Pharmacol. 145:1093-102). […] Then HUVECs were stimulated with VEGF (2.2 nmol/L), with and without DUF2C5 (1, 3, and 10 μmol/L), or negative control peptide (CT23, 3 μmol/L) for 48 hours to test VEGF-induced proliferation by WST-1 assay in a 96-well format.
The effects of DUF2C5 on VEGF-induced proliferation were subsequently determined by the WST-1 assay.

Chain of VEGFR2 (P35968 20-1356): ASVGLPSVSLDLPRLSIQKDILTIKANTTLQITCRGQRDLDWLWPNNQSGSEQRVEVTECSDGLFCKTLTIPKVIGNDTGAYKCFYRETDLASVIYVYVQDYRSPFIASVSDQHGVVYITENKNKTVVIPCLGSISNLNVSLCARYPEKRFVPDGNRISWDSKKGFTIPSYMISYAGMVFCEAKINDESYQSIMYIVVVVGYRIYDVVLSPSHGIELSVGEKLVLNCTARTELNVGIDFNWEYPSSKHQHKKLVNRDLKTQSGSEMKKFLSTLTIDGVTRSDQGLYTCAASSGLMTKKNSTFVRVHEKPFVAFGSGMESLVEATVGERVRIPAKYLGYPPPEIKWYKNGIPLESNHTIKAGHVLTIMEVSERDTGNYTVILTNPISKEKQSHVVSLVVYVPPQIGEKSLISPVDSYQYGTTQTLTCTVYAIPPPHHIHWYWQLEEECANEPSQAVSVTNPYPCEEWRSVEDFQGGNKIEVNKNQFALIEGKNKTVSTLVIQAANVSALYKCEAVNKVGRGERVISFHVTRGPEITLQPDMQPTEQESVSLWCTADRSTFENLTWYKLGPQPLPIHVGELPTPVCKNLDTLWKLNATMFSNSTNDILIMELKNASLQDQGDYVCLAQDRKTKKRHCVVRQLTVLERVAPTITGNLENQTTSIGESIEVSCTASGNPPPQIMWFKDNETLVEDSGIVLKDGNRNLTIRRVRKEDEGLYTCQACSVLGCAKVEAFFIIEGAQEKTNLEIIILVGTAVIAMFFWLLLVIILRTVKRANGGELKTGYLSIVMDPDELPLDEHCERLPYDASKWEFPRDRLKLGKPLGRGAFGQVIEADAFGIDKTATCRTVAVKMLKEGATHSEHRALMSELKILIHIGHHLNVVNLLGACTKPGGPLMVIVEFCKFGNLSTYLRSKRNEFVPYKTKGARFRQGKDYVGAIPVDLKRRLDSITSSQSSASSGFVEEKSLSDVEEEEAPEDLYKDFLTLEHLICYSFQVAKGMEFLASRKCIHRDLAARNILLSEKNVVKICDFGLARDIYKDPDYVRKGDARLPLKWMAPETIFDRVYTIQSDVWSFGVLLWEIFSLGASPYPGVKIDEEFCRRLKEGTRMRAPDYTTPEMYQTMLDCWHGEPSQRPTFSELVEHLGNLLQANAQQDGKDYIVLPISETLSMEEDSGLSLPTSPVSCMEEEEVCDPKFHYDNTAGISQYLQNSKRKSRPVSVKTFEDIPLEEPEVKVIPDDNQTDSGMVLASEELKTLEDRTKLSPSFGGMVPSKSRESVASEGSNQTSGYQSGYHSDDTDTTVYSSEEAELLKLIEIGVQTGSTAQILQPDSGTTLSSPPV

In the case of “CT23: negative control, C-terminal 23-amino acid peptide, residues 1650 to 1672 of KIF13B (RVRASELRSFSRMLAGDPGCSPG)”, the VEGFR2 binding (VEGFR2) is reported as “did not interact with VEGFR2”, the “bFGF-induced EC migration” value (HUVECs [1]; stimulus 50 ng/mL bFGF) is reported as “had no effect” and the “S1P-induced EC migration” value (HUVECs [1]; stimulus 1 μmol/L S1P) is reported as “had no effect”. For the same substance, the “VEGF-induced EC migration” value (HUVECs [1]; stimulus VEGF) was “had no effect”, the “VEGF-induced migration of HUVECs (wound closure)” value (HUVECs [2]) was “migrated and closed the wound” and the “uptake of the peptides by HUVECs” value (HUVECs [3]) was “shown to internalize”. The “EGFR among binding proteins, number of hits” value (EGFR) was “did not interact”, the “PDGFRα among binding proteins, number of hits” value (PDGFRα) was “did not interact” and the “PDGFRβ among binding proteins, number of hits” value (PDGFRβ) was “did not interact”. The VEGF-induced proliferation (HUVECs [4]) was “had no effect”.
